# Laboratory results from patent US20240166598A1, “COMPOUNDS, COMPOSITIONS, AND METHODS OF USING THE SAME” (priority 2021, published 2024).
# Legend:
# [1] = human
# Vero E6 cells = details: African green monkey
# in vitro [2] = details: human, microsomes
# in vitro [3] = details: human, Caco-2
# A549-hACE2 cells = test: Cytotoxicity in A549-hACE2 cells (CellTiter-Glo); details: assay conditions
# SARS CoV-2 PLpro = SARS CoV-2 PLpro (Severe acute respiratory syndrome coronavirus 2 (2019-nCoV) (SARS-CoV-2), UniProt P0DTD1); assay type: biochemical; details: 20 μM
# [4] = system: SARS-CoV-2, Isolate USA-WA1/2020; test: microbe, parasite or virus in culture; assay type: cell-based; details: for EC50: Severe acute respiratory syndrome coronavirus 2, Vero C1008, read-out: EC50 against infectious SARS-CoV-2 (plaque formation)
# SARS-CoV-2 USA/WA1/2020 = test: microbe, parasite or virus in culture; assay type: cell-based; details: for IC50: Severe acute respiratory syndrome coronavirus 2, 48 h, read-out: IC50 (viral RNA by RT-qPCR)
# human USP7 = human USP7 (Homo sapiens (Human), UniProt Q93009); test: USP7 selectivity counter-assay (Ub-AMC); assay type: biochemical; details: catalytic domain of human USP7; up to 30 μM for CPI-169
# Sequence of human USP7 (Q93009 214-521 limits assumed): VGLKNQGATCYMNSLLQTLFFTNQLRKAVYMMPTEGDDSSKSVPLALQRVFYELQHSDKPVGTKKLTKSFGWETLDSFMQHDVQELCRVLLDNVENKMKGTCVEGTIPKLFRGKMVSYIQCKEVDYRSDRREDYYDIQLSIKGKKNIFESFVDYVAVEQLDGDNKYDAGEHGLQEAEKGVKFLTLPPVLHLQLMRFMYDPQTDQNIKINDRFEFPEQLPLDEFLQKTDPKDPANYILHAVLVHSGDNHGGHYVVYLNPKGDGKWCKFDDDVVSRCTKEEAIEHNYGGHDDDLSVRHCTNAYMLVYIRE
# Description: (§1) Assay conditions were similar to the PLpro primary assay, with the following substitutions: USP7 assays contained 4 nM USP7 and 0.5 uM Ub-AMC (Boston Biochem); USP14 assays contained 1.7 uM USP14, 4 uM Ub-AMC, and the addition of 5% glycerol to Buffer B. PLpro activity with ISG15-AMC and Ub-AMC were assayed in a manner similar to the PLpro primary assay. PLpro and substrate concentrations were modified as follows: 80 nM PLpro was assayed with 0.5 uM Ub-AMC, and 4 nM PLpro was assayed with 0.5 uM ISG15-AMC.
# as §1, with “to Buffer B.PLpro activity with” for “to Buffer B. PLpro activity with”, “with 0.5 μM ISG15-AMC.” for “with 0.5 uM ISG15-AMC.”
smiles,measurement,setting,value
Cc1ccc(NC2CNC2)cc1C(=O)N[C@H](C)c1cccc(-c2ccc(CNC3CCCC3)s2)c1 [XR8-23],In vitro CIint,[1],5.89 μL/min/mg protein
same,Scale-up CIint,[1],7.38 mL/min/kg
same,concentration at which no toxicity was observed,Vero E6 cells,< 50 µM
same,half-life,in vitro [2],236 min
same,Papp A→B,in vitro [3],0.16 ×10⁻⁶ cm/s
same,Papp B→A,in vitro [3],1.56 ×10⁻⁶ cm/s
same,concentration at which cytotoxicity was not observed,A549-hACE2 cells,< 10 µM
CC(C)c1cc(C(C)C)c(CC(=O)NS(=O)(=O)Oc2c(C(C)C)cccc2C(C)C)c(C(C)C)c1 [Avasimibe],"result in the PLpro screen, in words",SARS CoV-2 PLpro,weak PLpro inhibitors
Cc1ccc(NC2CNC2)cc1C(=O)N[C@H](C)c1cccc(-c2ccc(CN3CCCC3)s2)c1 [XR8-24],EC50,[4],2.5 ± 1.9 µM
same,effect of treatment on viral RNA versus remdesivir (10 μM),SARS-CoV-2 USA/WA1/2020; 20 μM,not significantly different from that of remdesivir
same,IC50,SARS-CoV-2 USA/WA1/2020,1200 ± 200 nM
same,In vitro CIint,[1],9.60 μL/min/mg protein
same,Scale-up CIint,[1],12.04 mL/min/kg
same,concentration at which no toxicity was observed,Vero E6 cells,< 50 µM
same,half-life,in vitro [2],144 min
same,Papp A→B,in vitro [3],0.14 ×10⁻⁶ cm/s
same,Papp B→A,in vitro [3],3.06 ×10⁻⁶ cm/s
same,concentration at which cytotoxicity was not observed,A549-hACE2 cells,< 50 µM
"Cc1ccc(NC2CNC2)cc1C(=O)N[C@H](C)c1cccc(-c2ccc(CN[C@H]3CC[C@@H](O)C3)s2)c1 (single isomer, unassigned) [XR8-89]","antiviral activity, in words",[4],superior antiviral potency to GRL017
same,concentration at which no toxicity was observed,Vero E6 cells,< 50 µM
"Cc1ccc(N)cc1C(=O)N[C@H](C)c1cccc2ccccc12 [GRL0617, reference compound]",inhibition of USP7-catalyzed Ub-AMC hydrolysis,human USP7,did not inhibit
same,EC50,[4],21.7 ± 1.6 µM
same,IC50,SARS-CoV-2 USA/WA1/2020,> 20000 nM
same,Papp A→B,in vitro [3],12.4 ×10⁻⁶ cm/s
same,Papp B→A,in vitro [3],12.9 ×10⁻⁶ cm/s
CCOc1nc2cccc(C(=O)O)c2n1Cc1ccc(-c2ccccc2-c2nnn[nH]2)cc1 [candesartan],"result in the PLpro screen, in words",SARS CoV-2 PLpro,weak PLpro inhibitors
CCS(=O)(=O)N1CCC([C@@H](C)n2c(C)c(C(=O)NCc3c(OC)cc(C)[nH]c3=O)c3ccccc32)CC1 [CPI-169],inhibition of USP7-catalyzed Ub-AMC hydrolysis,human USP7,not able to inhibit USP7 up to a concentration of 30 μM
